Laboratory results taken from a melting point compilation (Tetko et al.; mined from patent text by program, amines drawn as free bases though some values may be those of a salt).

Row | melting point | SMILES
1 | 179 to 181 °C | CC1=NN(c2ccc3c(=O)n(CC(C)C)c(CN)c(-c4ccccc4)c3c2)CO1
2 | 133 °C | CC(C)Nc1cccnc1N1CCN(C(=O)c2ccc(C(=O)NCCN(C)C)cc2)CC1
3 | 59 to 65 °C | CC(C)(C#N)NC(=O)c1ccccc1Cl
4 | 171 to 172 °C | COC(=O)c1cc(CCNc2ncnc3nccnc23)ccc1Oc1cc(C(F)(F)F)ccn1
5 | 231 °C | O=C(NC(=O)c1c(F)cccc1F)Nc1ccc2c(c1)C(F)(F)OC(F)(F)O2
6 | 300 °C | COc1ccc(-c2[nH]nc3c2C(=O)c2c(NC(=O)Cc4ccccc4Cl)cccc2-3)cc1
7 | 217 to 221 °C | O=C(O)Cn1c(=O)sc2ccc(O)cc21
8 | 147 to 149 °C | N#CCCNC(=O)c1cccc(-c2ccc3c(c2)N(CCc2ccc(Cl)cc2Cl)CC3)c1
9 | 185 to 186 °C | CCc1cccc(CC)c1NC(=O)NCC1(c2ccccc2)CCCCC1
10 | > 300 °C | O=C1NC(O)c2c1c1c3ccccc3[nH]c1c1[nH]c3ccccc3c21 (centres undefined)
11 | 145 to 147 °C | COC(SC)C(=O)c1[nH]c2cc(Br)c(Cl)cc2c1-c1ccccc1 (centres undefined)
12 | 285 °C | Cc1csc2[nH]cc(C#N)c(=O)c12
13 | 64 to 67 °C | CC(=Cc1cccc2ccccc12)[N+](=O)[O-]
14 | 209 to 210 °C | CCc1cc(=O)c2nc(OCCO[Si](c3ccccc3)(c3ccccc3)C(C)(C)C)ccc2[nH]1
15 | 151 °C | COC(=O)c1cccc(Sc2ccccc2)c1S(C)(=O)=O
16 | 93 °C | CCOC(=O)c1nnc(-c2ccc(OCC)cc2)o1
17 | 112 to 115 °C | CCOC(=O)CCC(=O)c1cccc(C(=O)c2ccc(Cl)cc2)c1N
18 | 137 to 139 °C | OCC(CO)c1nc(NCc2ccccn2)c2c(-c3ccccc3)csc2n1
19 | 125 to 127 °C | CCCN(c1ccncc1)N1C(=O)C(C)(C)c2ccccc21
20 | 79 to 81 °C | CCn1nnc(-c2ccc(CN3CCC(C(O)(c4ccc5c(c4)OC(F)(F)O5)c4ccc5c(c4)OC(F)(F)O5)CC3)cc2)n1
21 | 222 to 225 °C | CN1C(=O)[C@@](NC(=O)Nc2cccc(N(C)c3nnn[nH]3)c2)(C2CCCCC2)N=Cc2ccccc21
22 | 208 to 209 °C | O=S(=O)(CCO)c1cc2c(Nc3cccc(Br)c3)ncnc2cn1
23 | 71 to 72 °C | COc1cc(/C=C/CO)ccc1OCc1csc(-c2ccccc2)n1
24 | 140 to 148 °C | C=Cc1ccccc1C1C(C(=O)OC)=C(C)NC(C)=C1C(=O)OC

Row | melting point | SMILES
25 | 159 to 160 °C | CC(C)Oc1c(C(=O)O)sc(-c2ccccc2)c1Br
26 | 170 to 172 °C | Cc1scnc1-c1ccc(-c2cc(C(F)(F)F)nn2-c2ccc(S(C)(=O)=O)c(F)c2)cc1
27 | 266 to 267 °C | CCOC(=O)c1c2n(c3ccc(Cl)c(Cl)c3c1=O)CCS2
28 | 101 to 104 °C | Nc1ccccc1NCC12CC3CC(CC(C3)C1)C2
29 | 98 to 99 °C | COCOC1=C(C(=O)OC)CC(C#N)(c2ccc(OC)c(OCC3CC3)c2)CC1 (centres undefined)
30 | 118 to 119 °C | Cc1cn(-c2cc([N+](=O)[O-])cc(C(F)(F)F)c2)cn1
31 | 253 to 255 °C | COC(=O)[C@H]1C[C@H](NC(=O)Nc2ccc(I)cc2)c2c(Cl)cc(Cl)cc2N1 (relative stereo)
32 | > 200 °C | CC(C)/C=C(\C[C@H](N)C(=O)O)C(=O)O
33 | 157 to 159 °C | Cc1ccc2c(c1)-c1csc(N)c1C2=O
34 | 162 to 164 °C | Nc1ncccc1-c1nc2ccc(-c3cccnc3)nc2n1-c1ccc(CC(=O)Nc2ccccc2)cc1
35 | 111 to 116 °C | Brc1ccc2c3c(cccc13)C(NCCCCCCCCCCCCn1ccnc1)=N2
36 | 103 to 105 °C | COc1c(N(C)C)cc(CC(C#N)=CNc2ccccc2)cc1N(C)C
37 | 225 °C | CCOc1cc(-c2cc(C(F)(F)F)n3ncc(C(=O)Nc4cccc(S(=O)(=O)NC5CC5)c4)c3n2)ccc1C(F)(F)F
38 | 215 to 217 °C | Cc1nc(N2CCN(CCc3c[nH]c4ccccc34)C2=O)sc1C(=O)NCc1ccccc1
39 | 50 to 52 °C | CC(=O)c1ccc(C2=CCC(C)CC2)cc1 (centres undefined)
40 | 80 to 81 °C | Cc1cc(O)c(S(=O)CCC(C)C)c(=O)o1 (centres undefined)
41 | 89 to 99 °C | Cc1onc(NS(=O)(=O)c2ccccc2-c2ccc(-c3ncco3)cc2Cn2ccc(C(F)(F)F)n2)c1C
42 | 145 to 146 °C | CN(C)C(=O)C(CCO)C1(C)CCCc2c1[nH]c1ccccc21 (centres undefined)
43 | 258 to 260 °C | NC(=O)NCc1c[nH]c(=S)n1[C@H]1CCc2c(F)cc(F)cc2C1
44 | 211 to 213 °C | Nc1ccc2cccc(Nc3cc(-c4ccc(C(F)(F)F)cc4)ncn3)c2n1
45 | 178 to 179 °C | CCOC(=O)/C=C/C1N(C(C)C)C(=O)c2ccccc2C1(O)c1ccc(F)cc1OC (centres undefined)
46 | 115 to 117 °C | COc1ccc(C#N)cc1C(C)(C)C=O
47 | 75 to 76 °C | O=C(NCCCCCCCCCCCCO)OC1CCN(C(=O)Oc2ccc(Oc3ccccc3)cc2)CC1
48 | 108 to 109 °C | OCC(O)(c1ccccc1)C(Cl)c1ccccc1 (centres undefined)

Row | melting point | SMILES
49 | 107 to 110 °C | CCCCCN1C(=O)C2(COc3cc(-c4ccncc4)ccc32)c2ccccc21 (centres undefined)
50 | 132 to 135 °C | CC1=C(C(=O)Nc2cc(C(=O)OC(C)C)ccc2F)SCCO1
51 | 91 to 93 °C | O=C(Cn1nnnc1-c1ccoc1)OCCO
52 | 130 to 145 °C | CC(=O)Nc1c(C(=O)c2cccc(O)c2)[nH]c2cc(Cl)ccc12
53 | 208 °C | Cc1ccc(S(=O)(=O)N(C)c2cc(C)cc([N+](=O)[O-])c2N)cc1
54 | 74 to 75 °C | COCCOc1ccc(C=O)cc1O
55 | 51.2 °C | CCC/C=C/[C@H]1CC[C@H](c2ccc(C(C)=O)cc2)CC1
56 | 64 to 65 °C | CCC1=C(C)C(=C(C#N)C#N)C(C)=C(CC)O1
57 | 181 to 182 °C | COc1ccc(Nc2ncc3ccc(=O)n(C4CCCC4)c3n2)cn1
58 | 133 to 136 °C | Cc1ccnc2[nH]c(=O)c(CC(=O)N(CCNC(=O)OC(C)(C)C)CC(=O)O)cc12
59 | 235 to 237 °C | O=C1OC(=O)c2c(C(F)(F)F)c3ccccc3c3cccc1c23
60 | 73 to 75 °C | C=C1CCC2C3CCC4CC(OCOC)CCC4(C)C3CCC12C (centres undefined)
61 | 111 to 114 °C | C#CCn1c(-c2ccccc2)nc(C(F)(F)F)c(CC)c1=O
62 | 120 to 122 °C | CN(C)CCN(C)C(=O)Cn1c(-c2ccc(Cl)cc2)nc2cccnc21
63 | 255 to 258 °C | Nc1nc2cc(Cl)c(Cl)c(Cl)c2[nH]1
64 | 123 to 125 °C | CC1c2cccc3c2N(CC3)c2ccccc2N1C(=O)CBr (centres undefined)
65 | 171 °C | CC1(C)Cc2cccc(Oc3ccc(NC(=O)NC(=O)c4c(F)cccc4F)cc3Cl)c2O1
66 | > 300 °C | O=c1ccn(-c2cc3[nH]c(=O)c(=O)[nH]c3cc2F)cc1
67 | 215 to 217 °C | Nc1nc2c(c(Nc3ccccc3)n1)-c1ccccc1C2
68 | 74 °C | CCCCCCCCCCCCCCCCCC(=O)c1cc(C(=O)OCC)ccc1O
69 | 151 to 152 °C | CC(C)(C)OC(=O)N1CCc2onc(O)c2C1
70 | 224 to 226 °C | CC1(N2Cc3cc(CNC(=O)c4ccc(OC(F)(F)F)cc4)ccc3C2=O)CCC(=O)NC1=O (centres undefined)
71 | 146 to 148 °C | COCC1CN(c2ccc(C3CCC(OC(c4ccccc4)c4ccccc4)CC3)cc2)C(=O)O1 (racemic)
72 | 122 to 125 °C | Cn1nnnc1S(=O)(=O)Cc1ccccc1

Row | melting point | SMILES
73 | 195 °C | COc1cc(CCN2CCCCC2)cc(OC)c1-c1ccc(C[C@H](NC(=O)c2c(Cl)cccc2Cl)C(=O)O)cc1
74 | 146 to 147 °C | COc1ccc2c(c1)C(=O)C(=O)C1=C2OC2(CCN(CC(O)Cc3ccccc3)CC2)CS1 (centres undefined)
75 | 91 to 94 °C | COc1cc(N)c2ncccc2c1OCC(F)(F)F
76 | 300 to 301 °C | CN(C)CCn1c(=O)c2ccc(N)cc2c2cnc3cc4c(cc3c21)OCO4
77 | 54 to 57 °C | NC(CO)c1ccc(OC(F)F)cc1 (centres undefined)
78 | 383 to 385 °C | Cn1nc(-c2cnc3[nH]cc(C(=O)NC4CCS(=O)(=O)C4)c3n2)c2ccc(Cl)cc21 (centres undefined)
79 | 117 to 120 °C | CN(C)CCCc1ccc(S(=O)(=O)N2CCC(Nc3nc(N)c(C(=O)c4c(F)cccc4F)s3)CC2)cc1
80 | 160 to 161 °C | N#CCCNC(=O)C1=C(C(=O)Nc2ccc(Cl)cc2F)CCCC1
81 | > 220 °C | N=C(N)SCc1c(Cl)ccc2c1oc1c(CSC(=N)N)c(Cl)ccc12
82 | 319 °C | O=C(O)c1ccc(C(=O)Nc2cccc([N+](=O)[O-])c2)cc1
83 | 149 °C | O=C(O)CNC(=O)[C@@H](CO)NC(=O)CNC(=O)CSC(=O)c1ccccc1
84 | 178 to 179 °C | O=C(OC(c1ccccc1)c1ccccc1)C(C1CC(Cl)=NO1)N1C(=O)c2ccccc2C1=O (centres undefined)
85 | 179 to 182 °C | CC(=O)Nc1ccc(S(=O)(=O)Cc2cccc(OC(C)=O)c2)c2cccnc12
86 | 59 to 61 °C | CC(=O)c1ccc(OCCCBr)c(C)c1
87 | 137 to 141 °C | COc1ccc(C(=O)NNC(=O)c2occ(-c3ccccc3)c2-c2ccccc2)cc1NC(=O)OC(C)(C)C
88 | 160 to 162 °C | COC(=O)c1c(Oc2nc(OC)cc(OC)n2)ccc2ncccc12
89 | 144 to 146 °C | CC(=O)Nc1ccc(OC(=O)CO)cc1
90 | 133 to 134 °C | COc1cccc(-c2nc(-c3ccccc3)c3ncc(-c4ccc(C(C)=O)cc4)cc3n2)c1
91 | 164 to 166 °C | CCCOCCOc1ccccc1-c1ccc2c(c1)C=C(C(=O)Nc1ccc(CN(C)C3CCOCC3)cc1)CCS2(=O)=O
92 | 182 to 183 °C | CCOC(=O)C1=CC2=C(C)C(C)(OC)C=C(C)C2=N1 (centres undefined)
93 | 180 to 181 °C | CSc1cc(NCc2nc3ccccc3o2)c(=O)[nH]c1C
94 | 206 to 208 °C | CCCC1(CC(=O)O)OCC(=O)c2c1[nH]c1ccccc21 (centres undefined)
95 | 160 to 162 °C | O=CN(O)C(CCO)CS(=O)(=O)c1ccc(-c2ccc(F)cc2)cc1 (centres undefined)
96 | 120 to 121 °C | NC(=O)c1c(O)cccc1OCCBr

Row | SMILES | melting point
97 | Cc1nnc2n1-c1sc3c(c1C(c1ccccc1Cl)=NC2)CCN(C(=S)Nc1ccccc1C(F)(F)F)C3 | 190 to 192 °C
98 | O=C(Nn1cnnc1)C1=NN(c2ccc(Cl)cc2Cl)C(c2ccc(Cl)cc2)C1 (centres undefined) | 134 to 138 °C
99 | CC(=O)Nc1ccc2c3c(cccc13)S(=O)(=O)N2CCCN1CC=C(c2ccccc2)CC1 | 178 °C
